By EC50 is commonly meant the concentration needed to bring the measured effect to its halfway point. The term IC50 denotes the concentration that gives 50% inhibition. A low value points to greater potency in that assay.

Molecules are shown by their SMILES. Active and inactive are the calls of the source.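 The calls were made as follows: active = compounds giving half or more protection of infected cells from virus-caused growth loss, again on retest; inactive = the rest.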

For the experiment, the system named is CEM cells HIV-1 protection, formazan growth assay. Put plainly: NCI AIDS Antiviral Assay. Particulars: for IC50: measured here: growth of uninfected CEM cells. In short, it runs like this:
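Five concentrations of each compound were applied to infected and uninfected human CEM cells. Protection from HIV-1 was judged from growth measured with a soluble formazan assay.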

Regarding `O=C1C2CCc3cnn(-c4ccccc4)c3C2C(=O)N1c1ccccc1` (stereo unspecified), the EC50 is above 200 µM and the half-maximal inhibitory concentration (IC50) was above 200 µM. As for `O=C(O)COc1ccc(C(=O)/C(SS/C(C(=O)c2ccc(OCC(=O)O)c(Cl)c2Cl)=C2\C=C(c3ccc(F)cc3)SS2)=C2/C=C(c3ccc(F)cc3)SS2)c(Cl)c1Cl`, the EC50 is above 37.2 µM and the IC50 was above 37.2 µM.

As for `O=Cc1cc(C(=O)Nc2ccc(/C=C/c3ccc(NC(=O)c4cc(C=O)c5cccnc5c4O)cc3S(=O)(=O)O)c(S(=O)(=O)O)c2)c(O)c2ncccc12`, the EC50 is 24.5 µM and the IC50 was above 100 µM. Take `COc1ccc(NC(=O)C(C)Oc2ccc(OCC3CCCCC3)cc2)cc1` (stereo unspecified): the EC50 was above 26.3 µM and the IC50 is above 26.3 µM.

Consider `COc1ccc(CN(Cc2ccccc2)c2ncccn2)cc1`, for which the EC50 is above 17 µM and the half-inhibitory concentration (IC50) was above 17 µM. Regarding `O=c1cc(CSc2c(-c3ccccc3)c(=O)n(-c3ccccc3)c(=S)n2-c2ccccc2)[nH]c(=O)[nH]1`, the EC50 was above 200 µM and the IC50 is above 200 µM. Regarding `CC(C)/C=C/c1cc(/C=C/C(=O)c2cc(/C=C/C(C)C)c(O)cc2O)ccc1O`, the outcome was inactive. Turning to `NC(CSS(=O)(=O)O)=NCCCCOc1ccccc1`, the EC50 was above 200 µM and the 50% inhibitory concentration (IC50) was 91.2 µM. On to `NC(=O)N/N=C(\Cc1nc2ccc(Cl)cc2[nH]c1=O)C(=O)Nc1ccc(Cl)cc1Cl`, for which the EC50 is above 77.6 µM and the IC50 was above 77.6 µM. As to `CCOC(=O)C(C(=O)OCC)C(NC(=O)Nc1cc(C(F)(F)F)ccc1OC)(C(F)(F)F)C(F)(F)F`, the outcome was inactive.

`Cc1ccc(-c2c3nc(c(-c4ccc(C)cc4)c4ccc([nH]4)c(-c4ccc(OCC5COC(C)(C)O5)cc4)c4nc(c(-c5ccc(C)cc5)c5ccc2[nH]5)C=C4)C=C3)cc1` (stereo unspecified): the EC50 is above 100 µM and the IC50 was above 100 µM.

As to `CCOC(=O)CC1=Nc2ccccc2SC1`, the outcome was inactive. With `CCOC(=O)CC(=O)ON(C)C(=O)Cc1ccccc1`, the EC50 was above 251 µM and the IC50 was above 251 µM. For the compound `CC1C2CC(CC2O)C1(C)C` (stereo unspecified), the EC50 is above 1620 µM and the IC50 is above 1620 µM. For `CO[C@@](c1ccccc1)(c1nc(C#N)c(N)o1)C(F)(F)F`, the EC50 was 79.4 µM and the IC50 was determined as 115 µM.

Regarding `CSC(SC)=C1CC(=O)Nc2ccccc2C1=O`, the EC50 was above 200 µM and the IC50 worked out at 58.9 µM. `Cc1ccc(Nc2cn(COCc3ccccc3)c(=O)[nH]c2=O)cc1`: the EC50 is above 200 µM and the IC50 was above 200 µM. Turning to `CCOC(=O)C(NC(=O)c1nc[nH]c1[N+](=O)[O-])C(C)C` (stereo unspecified), the EC50 is above 91.2 µM and the IC50 came out at 63.1 µM. As to `COC(=O)C1CC(F)(F)[C@H]1n1cnc2c(N)ncnc21` (stereo partly specified), the EC50 was above 240 µM and the IC50 is above 240 µM.

As to `Nc1ccc(N=Nc2ccc(C(=O)O)cc2)c(N)c1N=Nc1ccc(N=Nc2ccc(O)c(C(=O)O)c2)cc1`, the EC50 is 49 µM and the IC50 was above 100 µM.

Regarding `CCOc1ncn(-c2ccc(NC(=S)NC34CC5CC(CC(C5)C3)C4)cc2)n1`, the EC50 is 12 µM and the IC50 worked out at 67.6 µM. `CC1=C(C)C(=O)C(C2=CC(=O)C=CC2=O)=C(C2=CC(=O)C=CC2=O)C1=O`: the EC50 is above 200 µM and the IC50 was 9.77 µM.

In the case of `O=P(O)(O)OP(=O)(O)O`, the EC50 was 182 µM and the IC50 is above 200 µM. `CC(=O)OCC12C(=O)C[C@@H](C)C3(CC(c4ccoc4)OC3=O)C1CCC(OC(C)=O)C21CO1` (stereo partly specified): the EC50 is above 200 µM and the IC50 was 135 µM.

With `CCC(=O)C(CCN1CCC2(CCCc3ccccc32)CC1)(c1ccccc1)c1ccccc1`, the EC50 was above 200 µM and the IC50 came to 6.61 µM. In the case of `Cc1c/c(=N/NC(=O)c2ccncc2)n2nc(N)sc2n1`, the EC50 is above 200 µM and the IC50 was above 200 µM. In the case of `Cc1ccc(S(=O)(=O)OCCC2CN(C(=O)OCc3ccccc3)C(C)(C)O2)cc1` (stereo unspecified), the EC50 was above 200 µM and the IC50 stood at 14.1 µM. For the compound `Cc1c(C(=O)Nc2ccc(Cl)c(C(F)(F)F)c2)oc2cc(O)ccc2/c1=N\NC(N)=S`, the EC50 was above 525 µM and the IC50 was 112 µM. On the same counts, the results for `Cc1ccc(S(=O)(=O)Nc2ccccc2NS(=O)(=O)c2ccc(C)cc2)cc1` are above 200 µM and 30.2 µM. As for `O=c1[nH]nc(-c2ccccc2)n1-c1cccc([N+](=O)[O-])c1`, the EC50 is above 200 µM and the IC50 was above 200 µM. Turning to `O=C(c1ccccc1)C1C(c2ccccc2)S(=O)C(c2ccccc2)CC1(O)c1ccccc1` (stereo unspecified), the EC50 is above 66.1 µM and the IC50 turned out to be 13.5 µM. On the same counts, the results for `O=S(=O)([O-])C(F)(F)F.[Ru+2].[Ru+2].c1ccc2c(c1)Cc1ccccc1-2` are above 100 µM and above 100 µM. The corresponding values for `O=c1[nH]nc(CNc2ccc(Cl)cc2Cl)c2ccccc12` are 55 µM and 58.9 µM. On the same counts, the results for `C#CCCOC1(OC)N=NC(C)(C)O1` (stereo unspecified) are above 200 µM and above 200 µM.

Regarding `CN(C)P(CCP(CCP(N(C)C)N(C)C)c1ccccc1)N(C)C`, the EC50 is above 617 µM and the IC50 was above 617 µM.

On to `COc1ccc(C2NC3=C(CCCC3)C3(C#N)C(=O)N=C(N)C23C#N)cc1` (stereo unspecified), for which the EC50 was above 200 µM and the IC50 came to 107 µM. As to `C/C=C1/CN2CC[C@]34C=C(CO)C1CC23Nc1ccccc14` (stereo partly specified), the EC50 is above 123 µM and the half-inhibitory concentration (IC50) was above 123 µM. Regarding `C=CCCCC1CCCNC1=O` (stereo unspecified), the EC50 was above 1480 µM and the half-inhibitory concentration (IC50) was 1150 µM. As to `c1ccc2c(c1)N=c1ccccc1=P21c2ccccc2Nc2ccccc21`, the EC50 was above 2 µM and the concentration for half-maximal inhibition (IC50) was found to be 0.214 µM. On the same counts, the results for `C#CCOC(=O)C(=[N+]=[N-])C(=O)CC(C)C` are above 200 µM and above 200 µM. With `O=C(OC1=CCN(Br)C1=O)C1=C(O)C(=O)N(Br)C1`, the EC50 is above 200 µM and the IC50 was 32.4 µM. On to `CCOC(=O)/C(O)=C(/C=NC(=S)c1ccncc1)C(=O)OCC`, for which the EC50 is above 200 µM and the IC50 is above 200 µM. Regarding `COc1ccc(C(=C(I)c2ccccc2)c2ccc(OC)cc2)cc1`, the EC50 is above 200 µM and the IC50 was determined as 182 µM.

As for `COc1ccccc1NC(=O)CC(=O)N1N=C(N2c3ccccc3Sc3ccccc32)CC1c1ccccc1` (stereo unspecified), the EC50 was above 200 µM and the IC50 is above 200 µM.

`Cc1c2c(c(C)c3c1C(=O)c1cc4c(cc1C3=O)OCO4)OCO2`: the EC50 is above 200 µM and the IC50 was above 200 µM. Regarding `CC1CN=C(N(C(=O)Nc2ccc(Cl)cc2)c2cccc(Cl)c2)S1` (stereo unspecified), the outcome was inactive. For `O=C1CC(c2c(-c3ccccc3)[nH]c3ccccc23)C(=O)N1` (stereo unspecified), the result was inactive. Take `O=C(Nc1ccc(Cl)c(C(F)(F)F)c1)C(=O)c1c(O)c2ccccc2oc1=O`: the EC50 was above 229 µM and the IC50 stood at 191 µM. On the same counts, the results for `Cc1cc(CSc2ssc(=S)c2-c2ccccc2)c(CSc2ssc(=S)c2-c2ccccc2)cc1C` are above 200 µM and above 200 µM. As to `C=CCc1c(O)c2c(c3oc(=O)cc(C)c13)CC(C)O2` (stereo unspecified), the result was inactive. Same read-out and setting: next, `COC(=O)C(Cc1c[nH]c2ccccc12)NC(=O)C(Cc1c[nH]c2ccccc12)NC(=O)OCc1ccccc1` (stereo unspecified): “inactive”. On to `c1ccc2c(c1)N=C(c1ccc3ccccc3c1)CC(c1cccc3ccccc13)S2` (stereo unspecified), for which the EC50 is above 2.51 µM and the IC50 was above 2.51 µM. Turning to `CCOC(=O)N/N=C(/N)c1cccc(Br)c1`, the EC50 is above 200 µM and the IC50 is above 200 µM.

For the compound `C/C=C/C=N/N(C(=O)c1cc([N+](=O)[O-])cc([N+](=O)[O-])c1)C1=NC(c2ccccc2)C(c2ccccc2)=NN1` (stereo unspecified), the EC50 was above 36.3 µM and the IC50 is above 36.3 µM. Turning to `CCCCCCC(=O)COP(=O)(OCC(=O)CCCCCC)OCC1C=CC(n2cc(C)c(=O)[nH]c2=O)O1` (stereo unspecified), the concentration for a half-maximal effect (EC50) was 0.562 µM and the IC50 was 174 µM.

Take `Nc1ncnc2c1ncn2C1CCCCC(O)C1` (stereo unspecified): the outcome was inactive. In the case of `Cc1cn(C2C/C(=C\C#N)C(CO[Si](C)(C)C(C)(C)C)O2)c(=O)[nH]c1=O` (stereo unspecified), the EC50 was above 200 µM and the IC50 is 182 µM.

In the case of `Nc1ncnc2c1ccn2CC=C(CO)CO`, the EC50 is above 200 µM and the IC50 is above 200 µM. Regarding `COC(=O)C12C=CC(C1)n1c(=O)n(-c3ccccc3)c(=O)n12` (stereo unspecified), the EC50 was above 295 µM and the IC50 turned out to be 275 µM. Consider `Cc1cnc2c(c1)C(=O)N(c1ccc(Br)cc1)S2(=O)=O`, for which the EC50 was above 200 µM and the IC50 came to 58.9 µM. As for `CCCCCCCCCCCCCCCCOC1OC(CS(=O)(=O)S(=O)(=O)CC2OC(OCCCCCCCCCCCCCCCC)C(O)C(O)C2O)C(O)C(O)C1O` (stereo unspecified), the EC50 was above 7.94 µM. On to `CCc1nnc(-c2nsc3ccccc23)s1`, for which the EC50 is above 145 µM and the IC50 is 126 µM. The corresponding values for `O=C(O)C(F)(F)C(F)(F)C(F)(F)C(F)(F)C(F)(F)C(F)(F)C(F)(F)C(F)(F)F` are above 200 µM and 105 µM.

As to `Cc1cc(S(=O)(=O)Nc2n[nH]c(-c3ccc(Cl)cn3)n2)c(S)cc1Cl`, the EC50 was above 148 µM and the IC50 was found to be 123 µM. On the same counts, the results for `Cc1cccc2c1Oc1cc(Cl)ccc1C2NC(=O)CN(C)C` (stereo unspecified) are above 77.6 µM and 72.4 µM. For the compound `O=C(/C=C/c1ccccc1)CC(=O)c1ccccc1.O=C(/C=C/c1ccccc1)CC(=O)c1ccccc1.[Cu]`, the EC50 was above 200 µM and the IC50 came to 95.5 µM. Turning to `O=c1cc(N2CCN(c3cc(=O)n4ccccc4n3)CC2)oc2ccccc12`, the EC50 was above 200 µM and the IC50 was above 200 µM. For the compound `COC1C=CC23c4cc5c(cc4C(O)OC2CN(C)C3C1)OCO5` (stereo unspecified), the EC50 is above 200 µM and the IC50 was 0.891 µM. On to `COc1ccccc1N=Nc1c(-c2ccccc2)nn(C(=O)CC(=O)Nc2ccccc2Cl)c1-c1ccccc1`, for which the EC50 was above 13.2 µM and the IC50 is above 13.2 µM. As for `COC(=O)Cc1nn2c(nc1=O)sc1ccc3ccccc3c12`, the EC50 was above 69.2 µM and the IC50 was above 69.2 µM.

Source of the values: PubChem BioAssay AID179 (DTP/NCI, 2004).
